# From patent US9499550B2 (BRISTOL-MYERS SQUIBB COMPANY, priority 2012, dated 2016)
# pEC50: −log10 of the molar value.
# Tests used:
# [1] = test system: HCV genotype 1a (H77 strain) replicon in HUH-7 cells; assay: HCV replicon luciferase reporter assay, genotype 1a; type: cell-based; details: Hepatitis C virus, Huh-7, 72 h, HCV genotype 1a replicon luciferase assay, 3 days incubation, range class, read-out: LE_1a (EC50, range)
# How it was run: (§1)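 Replicon inhibition for both genotypes was measured as Renilla luciferase signal (EnduRen, 7.5 μM final, 2 h) after 3-day, 37° C exposure of replicon-bearing HUH-7 cells in 4% FCS DMEM, 0.5% DMSO. The 1b construct carries S1179I; the 1a H77 construct carries P1496L and S2204I. Twenty-point, 3-fold dilutions were fitted four-parametrically for EC50, and CC50 was taken from multiplexed Cell Titer-Blue.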
# [2] = test system: HCV genotype 1b (Con1) replicon in HUH-7 cells; assay: HCV replicon luciferase reporter assay, genotype 1b; type: cell-based; details: Hepatitis C virus, Huh-7, 72 h, HCV genotype 1b replicon luciferase assay, 3 days incubation, range class, read-out: LE_1b (EC50, range)
# How it was run: as §1
Compound,pEC50 [1],pEC50 [2]
"COc1ccc2c(O[C@@H]3C[C@H]4C(=O)N[C@]5(C(=O)NS(=O)(=O)C6(C)CC6)C[C@H]5/C=C\CC[C@H](C)C[C@@H](C)[C@H](NC(=O)O[C@@H]5C[C@@H]6C[C@@H]6C5)C(=O)N4C3)nc(-c3ccc(F)cc3)cc2c1 [Compound 3086, (1R,3r,5S)-bicyclo[3.1.0]hexan-3-yl((2R,6S,7R,9S,13aS,14aR,16aS,Z)-2-((3-(4-fluorophenyl)-6-methoxyisoquinolin-1-yl)oxy)-7,9-dimethyl-14a-(((1-methylcyclopropyl)sulfonyl)carbamoyl)-5,16-dioxo-1,2,3,5,6,7,8,9,10,11,13a,14,14a,15,16,16a-hexadecahydrocyclopropa[e]pyrrolo[1,2-a][1,4]diazacyclopentadecin-6-yl)carbamate]",> 8.26,> 8.26
"COc1ccc2c(O[C@@H]3C[C@H]4C(=O)N[C@]5(C(=O)NS(=O)(=O)C6(C)CC6)C[C@H]5/C=C\CC[C@@H](C)C[C@@H](C)[C@H](NC(=O)O[C@@H]5C[C@@H]6C[C@@H]6C5)C(=O)N4C3)nc(-c3ccc(F)cc3)cc2c1 [Compound 3087, (1R,3r,5S)-bicyclo[3.1.0]hexan-3-yl((2R,6S,7R,9R,13aS,14aR,16aS,Z)-2-((3-(4-fluorophenyl)-6-methoxyisoquinolin-1-yl)oxy)-7,9-dimethyl-14a-(((1-methylcyclopropyl)sulfonyl)carbamoyl)-5,16-dioxo-1,2,3,5,6,7,8,9,10,11,13a,14,14a,15,16,16a-hexadecahydrocyclopropa[e]pyrrolo[1,2-a][1,4]diazacyclopentadecin-6-yl)carbamate]",> 8.26,> 8.26
"COc1ccc2c(O[C@@H]3C[C@H]4C(=O)N[C@]5(C(=O)NS(=O)(=O)C6(C)CC6)C[C@H]5/C=C\CC[C@H](C)C[C@@H](C)[C@H](NC(=O)OC(C)(C)C)C(=O)N4C3)nc(N3CCOCC3)cc2c1 [Compound 3088, tert-butyl ((2R,6S,7R,9S,13aS,14aR,16aS,Z)-2-((6-methoxy-3-morpholinoisoquinolin-1-yl)oxy)-7,9-dimethyl-14a-(((1-methylcyclopropyl)sulfonyl)carbamoyl)-5,16-dioxo-1,2,3,5,6,7,8,9,10,11,13a,14,14a,15,16,16a-hexadecahydrocyclopropa[e]pyrrolo[1,2-a][1,4]diazacyclopentadecin-6-yl)carbamate]",> 8.26,> 8.26
"COc1ccc2c(O[C@@H]3C[C@H]4C(=O)N[C@]5(C(=O)NS(=O)(=O)C6(C)CC6)C[C@H]5/C=C\CC[C@@H](C)C[C@@H](C)[C@H](NC(=O)OC(C)(C)C)C(=O)N4C3)nc(N3CCOCC3)cc2c1 [Compound 3089, tert-butyl ((2R,6S,7R,9R,13aS,14aR,16aS,Z)-2-((6-methoxy-3-morpholinoisoquinolin-1-yl)oxy)-7,9-dimethyl-14a-(((1-methylcyclopropyl)sulfonyl)carbamoyl)-5,16-dioxo-1,2,3,5,6,7,8,9,10,11,13a,14,14a,15,16,16a-hexadecahydrocyclopropa[e]pyrrolo[1,2-a][1,4]diazacyclopentadecin-6-yl)carbamate]",> 8.26,> 8.26
"COc1ccc2c(O[C@@H]3C[C@H]4C(=O)N[C@]5(C(=O)NS(=O)(=O)C6(C)CC6)C[C@H]5/C=C\CC[C@H](C)C[C@@H](C)[C@H](NC(=O)OCC5(C)CC5)C(=O)N4C3)nc(N3CCOCC3)cc2c1 [Compound 3090, (1-methylcyclopropyl)methyl ((2R,6S,7R,9S,13aS,14aR,16aS,Z)-2-((6-methoxy-3-morpholinoisoquinolin-1-yl)oxy)-7,9-dimethyl-14a-(((1-methylcyclopropyl)sulfonyl)carbamoyl)-5,16-dioxo-1,2,3,5,6,7,8,9,10,11,13a,14,14a,15,16,16a-hexadecahydrocyclopropa[e]pyrrolo[1,2-a][1,4]diazacyclopentadecin-6-yl)carbamate]",6.99 to 8.32,> 8.26
"COc1ccc2c(O[C@@H]3C[C@H]4C(=O)N[C@]5(C(=O)NS(=O)(=O)C6(C)CC6)C[C@H]5/C=C\CC[C@@H](C)C[C@@H](C)[C@H](NC(=O)OCC5(C)CC5)C(=O)N4C3)nc(N3CCOCC3)cc2c1 [Compound 3091, (1-methylcyclopropyl)methyl ((2R,6S,7R,9R,13aS,14aR,16aS,Z)-2-((6-methoxy-3-morpholinoisoquinolin-1-yl)oxy)-7,9-dimethyl-14a-(((1-methylcyclopropyl)sulfonyl)carbamoyl)-5,16-dioxo-1,2,3,5,6,7,8,9,10,11,13a,14,14a,15,16,16a-hexadecahydrocyclopropa[e]pyrrolo[1,2-a][1,4]diazacyclopentadecin-6-yl)carbamate]",> 8.26,> 8.26
"COc1ccc2c(O[C@@H]3C[C@H]4C(=O)N[C@]5(C(=O)NS(=O)(=O)C6(C)CC6)C[C@H]5/C=C\CC[C@H](C)C[C@@H](C)[C@H](NC(=O)O[C@H](C)C(F)(F)F)C(=O)N4C3)nc(N3CCOCC3)cc2c1 [Compound 3092, (R)-1,1,1-trifluoropropan-2-yl ((2R,6S,7R,9S,13aS,14aR,16aS,Z)-2-((6-methoxy-3-morpholinoisoquinolin-1-yl)oxy)-7,9-dimethyl-14a-(((1-methylcyclopropyl)sulfonyl)carbamoyl)-5,16-dioxo-1,2,3,5,6,7,8,9,10,11,13a,14,14a,15,16,16a-hexadecahydrocyclopropa[e]pyrrolo[1,2-a][1,4]diazacyclopentadecin-6-yl)carbamate]",> 8.26,> 8.26
"COc1ccc2c(O[C@@H]3C[C@H]4C(=O)N[C@]5(C(=O)NS(=O)(=O)C6(C)CC6)C[C@H]5/C=C\CC[C@@H](C)C[C@@H](C)[C@H](NC(=O)O[C@H](C)C(F)(F)F)C(=O)N4C3)nc(N3CCOCC3)cc2c1 [Compound 3093, (R)-1,1,1-trifluoropropan-2-yl ((2R,6S,7R,9R,13aS,14aR,16aS,Z)-2-((6-methoxy-3-morpholinoisoquinolin-1-yl)oxy)-7,9-dimethyl-14a-(((1-methylcyclopropyl)sulfonyl)carbamoyl)-5,16-dioxo-1,2,3,5,6,7,8,9,10,11,13a,14,14a,15,16,16a-hexadecahydrocyclopropa[e]pyrrolo[1,2-a][1,4]diazacyclopentadecin-6-yl)carbamate]",> 8.26,> 8.26
"COc1ccc2c(O[C@@H]3C[C@H]4C(=O)N[C@]5(C(=O)NS(=O)(=O)C6(C)CC6)C[C@H]5/C=C\CC[C@H](C)C[C@@H](C)[C@H](NC(=O)OC(C)(C)C(F)(F)F)C(=O)N4C3)nc(N3CCOCC3)cc2c1 [Compound 3094, 1,1,1-trifluoro-2-methylpropan-2-yl((2R,6S,7R,9S,13aS,14aR,16aS,Z)-2-((6-methoxy-3-morpholinoisoquinolin-1-yl)oxy)-7,9-dimethyl-14a-(((1-methylcyclopropyl)sulfonyl)carbamoyl)-5,16-dioxo-1,2,3,5,6,7,8,9,10,11,13a,14,14a,15,16,16a-hexadecahydrocyclopropa[e]pyrrolo[1,2-a][1,4]diazacyclopentadecin-6-yl)carbamate]",6.99 to 8.32,> 8.26
"COc1ccc2c(O[C@@H]3C[C@H]4C(=O)N[C@]5(C(=O)NS(=O)(=O)C6(C)CC6)C[C@H]5/C=C\CC[C@@H](C)C[C@@H](C)[C@H](NC(=O)OC(C)(C)C(F)(F)F)C(=O)N4C3)nc(N3CCOCC3)cc2c1 [Compound 3095, 1,1,1-trifluoro-2-methylpropan-2-yl((2R,6S,7R,9R,13aS,14aR,16aS,Z)-2-((6-methoxy-3-morpholinoisoquinolin-1-yl)oxy)-7,9-dimethyl-14a-(((1-methylcyclopropyl)sulfonyl)carbamoyl)-5,16-dioxo-1,2,3,5,6,7,8,9,10,11,13a,14,14a,15,16,16a-hexadecahydrocyclopropa[e]pyrrolo[1,2-a][1,4]diazacyclopentadecin-6-yl)carbamate]",> 8.26,> 8.26
"COc1ccc2c(O[C@@H]3C[C@H]4C(=O)N[C@]5(C(=O)NS(=O)(=O)C6(C)CC6)C[C@H]5/C=C\CC[C@H](C)C[C@@H](C)[C@H](NC(=O)O[C@@H]5C[C@@H]6C[C@@H]6C5)C(=O)N4C3)nc(N3CCOCC3)cc2c1 [Compound 3096, (1R,3r,5S)-bicyclo[3.1.0]hexan-3-yl((2R,6S,7R,9S,13aS,14aR,16aS,Z)-2-((6-methoxy-3-morpholinoisoquinolin-1-yl)oxy)-7,9-dimethyl-14a-(((1-methylcyclopropyl)sulfonyl)carbamoyl)-5,16-dioxo-1,2,3,5,6,7,8,9,10,11,13a,14,14a,15,16,16a-hexadecahydrocyclopropa[e]pyrrolo[1,2-a][1,4]diazacyclopentadecin-6-yl)carbamate]",6.99 to 8.32,> 8.26
"COc1ccc2c(O[C@@H]3C[C@H]4C(=O)N[C@]5(C(=O)NS(=O)(=O)C6(C)CC6)C[C@H]5/C=C\CC[C@@H](C)C[C@@H](C)[C@H](NC(=O)O[C@@H]5C[C@@H]6C[C@@H]6C5)C(=O)N4C3)nc(N3CCOCC3)cc2c1 [Compound 3097, (1R,3r,5S)-bicyclo[3.1.0]hexan-3-yl((2R,6S,7R,9R,13aS,14aR,16aS,Z)-2-((6-methoxy-3-morpholinoisoquinolin-1-yl)oxy)-7,9-dimethyl-14a-(((1-methylcyclopropyl)sulfonyl)carbamoyl)-5,16-dioxo-1,2,3,5,6,7,8,9,10,11,13a,14,14a,15,16,16a-hexadecahydrocyclopropa[e]pyrrolo[1,2-a][1,4]diazacyclopentadecin-6-yl)carbamate]",> 8.26,> 8.26
